Measurements as given in US20220236187A1, “SYSTEM AND METHOD FOR REAL-TIME MULTICOLOR SHORTWAVE INFRARED FLUORESCENCE IMAGING” (HELMHOLTZ ZENTRUM MÜNCHEN - DEUTSCHES FORSCHUNGSZENTRUM FÜR …, priority 2019, published 2022).
Like-named read-outs stand apart in the source and are kept apart here.

Experiments:
[1] = In vivo brightness comparison of JuloChrom5 (10) and ICG in a single mouse; parameters: species or system mice; conditions: compared to the PEG-coated micelles
Description: (§1) FIG. 21: Brightness comparisons in imaging configuration. a-c) Images upon 785 (33 mWcm^−2), 892 (54 mWcm^−2), and 968 (77 mWcm^−2) nm ex. and LP1000 nm detection (variable exposure time (ET) and frame rate) of capillaries containing equal moles of dyes 4-6, 9, 10 (lipid formulations) and benchmark dyes ICG (free) and MeOFlav7 (abbreviated MF7) (lipid formulation) when dissolved in water (a), fetal bovine serum (FBS) (b), or sheep blood (c). […] (e) and after injection of JuloChrom5 (10) (50 nmol) upon 982 nm (104 mWcm^−2) ex. (f). Collect: LP1000 nm, 2.0 ms ET, 150 fps (for 2-channel collection, see SI for images from all channels).
To most closely assess the brightness performance for SWIR imaging, an in vivo comparative experiment between the highest performing chromenylium dye, JuloChrom5 (10) and ICG was designed. To note, while many SWIR imaging agents have been compared to the benchmark dye, ICG, these comparisons are often difficult due to the diverse photophysical and biological properties of different emitters. In this case, the in vivo comparison is complicated by differing biodistribution properties of the two dyes. […] Normalizing each acquisition to the injection start time, the signal over time over the whole mouse (yellow), a section of the vasculature (red), and the liver (black) were quantified. […]

[2] = stated as established property; cited from earlier work
[3] = Two-color SWIR lymphatic imaging of a narcotized mouse (Example 2, Demonstration III); assay type: in vivo; conditions: injected intradermally into footpads and base of tail; after 30 min, 40 min
Description: The FIGS. 9A, 9B and 9C show merged frames representing the lymphatic system of a narcotized mouse in two-color real-time acquisition. With detector exposure time of 20 ms, a frame rate of 21 fps is achieved with the developed system. […] Then, Julo 7 micelles have been injected intravenously. The lymphatic functional imaging is later enhanced by the assignment of two distinct colors.
Light Source (785 nm laser & 1064 nm laser sequentially triggered, pulse length=21 ms)→Collimator→Mirror→1100 nm Short-pass Filter→Engineered Diffuser→Sample. The arrows represent the light path. Accordingly, the light path has been set up as follows: from Light Source (785 nm laser & 1064 nm laser sequentially triggered, pulse length=21 ms) to Collimator to Mirror to 1100 nm Short-pass Filter to Engineered Diffuser to Sample.
Sample→3xf=500 mm C-Coated lenses→Silver Mirror→1000 nm Long-pass Filter→2xf=200 mm C-coated lenses→InGaAs Detector. The arrows represent the light path. Accordingly, the light path has been set up as follows: from Sample to 3xf=500 mm C-Coated lenses to Silver Mirror to 1000 nm Long-pass Filter to 2xf=200 mm C-coated lenses to InGaAs Detector.
Sample: ICG (aqueous, 13 nmol intradermally [footpads and base of tail]) and Julo7 (micelles, 70 nmol intravenously).

[4] = Excitation-multiplexed SWIR imaging in mice, probe distribution (Example 9); assay type: in vivo; conditions: 80 minutes after i.p. 10 micelles and i.v. 3 micelles and ICG; top view
Description: To perform excitation multiplexing in the SWIR, a custom SWIR imaging configuration with three lasers and an InGaAs detector was built (FIG. 13B). With laser lines at 785 nm, 980 nm, and 1064 nm, tailored excitation could uniquely excite three fluorophores. Emission is detected in a color-blind fashion using identical filters and settings in the SWIR, providing high-resolution images. To enable this process to occur in real-time, we constructed an electronic triggering system which is coupled to both the camera and laser excitation sources. […]
Physiological properties such as heart-rate, respiratory rate, thermoregulation, metabolism, and the function of the central nervous system, are highly impacted by anesthesia. […] Due to frame rates which are faster than macroscopic movements in animals, the heart rate and respiratory rate in awake animals can be quantified. […] The method allows physiology to be monitored with minimal perturbation of the animal's usual environment. […] The real-time collection can be visualized by observing close time-points in which a continuous movement is monitored without visual aberrations (FIG. 16A). In addition to assessing natural physiology, these tools foreshadow more complex experiments in which the location of multiple probes could be monitored over long periods of time, non-invasively and without the need for anesthesia. […]

[5] = Brightness comparison of micelle-formulated dyes and ICG in water, fetal bovine serum and sheep blood; assay type: physicochemical; conditions: dyes in micelles, ICG free
Description: as §1
Next, to more closely approximate in vivo performance, each chromenylium or flavylium dye were formulated into water-soluble PEG-phospholipid micelles, a biocompatible nanomaterial for delivery. Brightness of solutions with equal dye concentration (flavylium and chromenylium dyes in micelles; ICG) were evaluated when dispersed in water (e.g., FIG. 20a), fetal bovine serum (FBS) (e.g., FIG. 20b), and sheep blood (e.g., FIG. 20c).
Results changed drastically compared to those in the organic solvent experiment, likely due to variable amounts of aggregation or interactions within the micelles and/or biological media. […]

[6] = Brightness comparison in organic solvent in the excitation-multiplexed SWIR imaging configuration; assay type: physicochemical; conditions: 0.25 μM, 785/892/968 nm excitation, 1000 nm LP
Description: While photophysical characterization can be essential for understanding chromophore properties, when moving to an in vivo system, there are many additional parameters that might contribute to a dye's performance, including delivery strategy, interaction with biological tissues, and the excitation and detection parameters of the imaging configuration. To begin to understand the translation to in vivo experiments, an excitation-multiplexed SWIR imaging configuration was used to compare emission of the fluorophores when excited at relevant wavelengths. The imaging set-up includes excitation lasers that correspond to each channel (e.g., i-iv, FIG. 17a) (785, 892, and 968, 1065 nm) with irradiation scaled to the approved values, as outlined by the International Commission on Non-Ionizing Radiation Protection (ICNIRP) guidelines. The guidelines indicate that within the spectral region of interest (˜785 nm-1065 nm) higher photon doses are tolerated as the wavelength is increased. […] The excitation lasers are diffused and delivered uniformly to the biological sample. […]
To compare brightness of the chromenylium dyes in vitro, dyes 5, 6, 9 and 10 were dissolved in organic solvent (DCM) at 0.25 μM, and measured the emission, with 1000 nm longpass (LP) filtering on an InGaAs camera upon sequential excitation with 785, 892, and 968 nm lasers. […]

[7] = value used as reference for relative measurements; cited from earlier work
[8] = value used as reference for relative measurements; cited from earlier work; remark: listed apart in the source

| hepatic clearance time [1] | location of probe in awake mouse [4] | change of brightness in FBS and blood compared to water [5] | ranking of SWIR emission per excitation channel [6] | SMILES | clearance of ICG [2] | conduction through the lymphatic vessels [3] | SWIR brightness in water, FBS and blood ([5]; equal dye concentration) | ΦF of reference standard IR-26 [7] [%] | ΦF of reference standard IR-26 [8] [%] |
| --- | --- | --- | --- | --- | --- | --- | --- | --- | --- |
| faster hepatic clearance time | exclusively in the liver | increase in brightness | best performers in channels i and ii | CC1(C)C(/C=C/C=C/C=C/C=C2\N(CCCCS(=O)(=O)O)c3ccc4ccccc4c3C2(C)C)=[N+](CCCCS(=O)(=O)[O-])c2ccc3ccccc3c21 [ICG, indocyanine green] | clears efficiently and exclusively from the liver | efficiently conducted through the lymphatic vessels | brightest SWIR emitter upon 785 nm excitation in both FBS and blood |  |  |
|  |  |  |  | ClC1=C(/C=C/c2cc(-c3ccccc3)[s+]c3ccccc23)CCC/C1=C\C=C1/C=C(c2ccccc2)Sc2ccccc21.[O-][Cl+3]([O-])([O-])[O-] [IR-26] |  |  |  | 0.05 | 0.05 |
